The test system of one experiment is Karpas-299 cell line. The experiment in a line: CellTiter-Glo cell proliferation inhibition on Karpas-299 cell line. In kind it is cell-based. The settings on record: Homo sapiens, 96 h, Karpas-299 cells, 5000 cells/well, 4 days drug treatment. The procedure: 4. Cell Proliferation Inhibitory Activities of the Compounds of the Present Invention on Karpas-299 Cell Line
? experimental method ? CellTiter-Glo® Luminescent Cell Viability Assay kit from Promega company was used to detect cell proliferation inhibitory activities of the compounds on Karpas-299 cell line.
? instrument ? Envision 2104 plate reader from PerKinElmer company; Vi-Cell XR cell counter from Beckman Counter company; MCO-18AIC CO2 incubator from SANYO company.
? experiment material ? CellTiter-Glo® Luminescent Cell Viability Assay Kit (Promega company, catalog No. G7573); Karpas-299 cell line (DSMZ, catalog No. ACC31); RPMI-1640 medium (HyClone company, catalog No. SH30809.01B); fetal bovine serum (FBS) (Gibco company, catalog No. 10099-141); PBS (HyClone company, catalog No. SH30256.01B); 96 wells cell culture plate (Corning company, catalog No. 3610); DMSO (AMRESCO company, catalog No. 0231); 96 wells plates (for diluting compounds) (CITOTEST company, catalog No. Ref36020096D);
? experimental condition ? Karpas-299 cells in exponential growth phase were collected and viable cells were counted by Vi-Cell XR cell counter. Cell suspension was adjusted to 62500 cells/ml with culture medium (RPMI-1640+10% FBS). 80 μl cell suspension was added into each well of 96 wells cell culture plate so that so that the final cell number of Karpas-299 cells was 5000 cells/well. The cells were cultivated in an incubator with an atmosphere of 37° C., 5% CO2 and 95% humidity for 2 hours and then each well was added with 20 μl compounds in RPMI-1640 medium solution (the final concentration of DMSO was 0.5%). 4 days after drug treatment, each well was added with 50 μl CellTiter-Glo solution which was previously thawed and equilibrated to room temperature, and mixed for 2 minutes with microplate shaker. After placing at room temperature for 10 minutes, luminescence reading value was measured with PerkinElmer Envision 2104 plate reader and the data was analyzed.
? tested samples ? Compounds of the examples.
Luminescence value of DMSO solvent control (Vvehicle control, which is the mean luminescence value from DMSO solvent control group)
Tested luminescence value (Vsample, which is the luminescence value from given concentration of compounds group) Inhibition rate (%)=(1−Vsample/Vvehicle control)×100
(§1) ? data processing ? IC50 of compounds was calculated by using XLfit program in Excel.
In general terms: ATP-based viability assays read luminescence as a measure of living cells.

Another experiment has as its target T1, Wild Type ALK kinase (Homo sapiens, UniProt Q9UM73).
T1 construct: purchased Sino-US Crown Bioscience, Inc. batch number ALK 20110607
The experiment in a line: HTRF KinEASE-TK assay, inhibitory activity on wild type ALK kinase. In kind it is biochemical. The note with it: wild type ALK 1 ng/μl, substrate 1 μM, 30° C. 35 minutes, read-out: Inhibition on ALK kinases (wildtype), IC50.
Description: 1. Inhibitory Activities of the Compounds of the Present Invention on Wild Type ALK Kinases
? experimental method ? HTRF KinEASE™-TK Assay kit from Cisbio company was used to detect inhibitory activities of the compounds on wildtype ALK kinases (wild type ALK kinases).
? instrument ? Envision 2104 plate reader from PerKinElmer company.
? experiment material ? HTRF KinEASE™-TK Assay Kit (Cisbio company, catalog No. 62TK0PEC); Wild Type ALK kinase (produced by Sino-US Crown Bioscience, Inc., batch number ALK 20110607); DTT (Gibco BRL company, catalog No. 15508-012); MgCl2 (Sigma Aldrich company, catalog No. M-2670); ATP (Sigma Aldrich company, catalog No. A-7699); DMSO (AMRESCO company, catalog No. 0231); EDTA (AMRESCO company, catalog No. 0105); 96 wells plates (for diluting compounds) (CITOTEST company, catalog No. Ref36020096D); OptiPlate™-384 (White), PerkinElmer company, catalog No. P12-004)
? experimental condition ? Compounds (the final concentration of DMSO was 1%), the reaction substrate (the final concentration was 1 μM), ATP (the final concentration was […]), and Wildtype ALK kinases (the final concentration was 1 ng/μl) were mixed respectively in a final volume of 10 μl reaction system (containing 5 mM MgCl2, 1× Kinase buffer, and 1 mM DTT). The mixture was reacted at 30° C. for 35 minutes after shaking for 30 seconds. After completion of the reaction, each well was added with 5 μl Sa-XL665 and 5 μl TK Antibody-Eu(K), and placed in the dark for 60 minutes to end the reaction after uniform mixing. The data was read from PerkinElmer EnVision plate reader ([…]), the 665/615 ratio was calculated, and the data was analyzed.
? tested samples ? Compounds from the examples.
? data analysis ? Minimum 665/615 ratio (Rmin, 665/615 ratio under the condition that 10.4 μM positive control drug LDK-378 was added)
Maximum 665/615 ratio (Rmax, 665/615 ratio under the condition that no compound was added)
Tested 665/615 ratio (Rcompound, 665/615 ratio under the condition that a given concentration of compound was added) Inhibition rate (%)=[1−(Rcompound−Rmin)/(Rmax−Rmin)]×100
as §1
A general note: Time-resolved FRET reads energy transfer from a long-lived donor to a nearby acceptor.

T1 sequence (Q9UM73 19-1620): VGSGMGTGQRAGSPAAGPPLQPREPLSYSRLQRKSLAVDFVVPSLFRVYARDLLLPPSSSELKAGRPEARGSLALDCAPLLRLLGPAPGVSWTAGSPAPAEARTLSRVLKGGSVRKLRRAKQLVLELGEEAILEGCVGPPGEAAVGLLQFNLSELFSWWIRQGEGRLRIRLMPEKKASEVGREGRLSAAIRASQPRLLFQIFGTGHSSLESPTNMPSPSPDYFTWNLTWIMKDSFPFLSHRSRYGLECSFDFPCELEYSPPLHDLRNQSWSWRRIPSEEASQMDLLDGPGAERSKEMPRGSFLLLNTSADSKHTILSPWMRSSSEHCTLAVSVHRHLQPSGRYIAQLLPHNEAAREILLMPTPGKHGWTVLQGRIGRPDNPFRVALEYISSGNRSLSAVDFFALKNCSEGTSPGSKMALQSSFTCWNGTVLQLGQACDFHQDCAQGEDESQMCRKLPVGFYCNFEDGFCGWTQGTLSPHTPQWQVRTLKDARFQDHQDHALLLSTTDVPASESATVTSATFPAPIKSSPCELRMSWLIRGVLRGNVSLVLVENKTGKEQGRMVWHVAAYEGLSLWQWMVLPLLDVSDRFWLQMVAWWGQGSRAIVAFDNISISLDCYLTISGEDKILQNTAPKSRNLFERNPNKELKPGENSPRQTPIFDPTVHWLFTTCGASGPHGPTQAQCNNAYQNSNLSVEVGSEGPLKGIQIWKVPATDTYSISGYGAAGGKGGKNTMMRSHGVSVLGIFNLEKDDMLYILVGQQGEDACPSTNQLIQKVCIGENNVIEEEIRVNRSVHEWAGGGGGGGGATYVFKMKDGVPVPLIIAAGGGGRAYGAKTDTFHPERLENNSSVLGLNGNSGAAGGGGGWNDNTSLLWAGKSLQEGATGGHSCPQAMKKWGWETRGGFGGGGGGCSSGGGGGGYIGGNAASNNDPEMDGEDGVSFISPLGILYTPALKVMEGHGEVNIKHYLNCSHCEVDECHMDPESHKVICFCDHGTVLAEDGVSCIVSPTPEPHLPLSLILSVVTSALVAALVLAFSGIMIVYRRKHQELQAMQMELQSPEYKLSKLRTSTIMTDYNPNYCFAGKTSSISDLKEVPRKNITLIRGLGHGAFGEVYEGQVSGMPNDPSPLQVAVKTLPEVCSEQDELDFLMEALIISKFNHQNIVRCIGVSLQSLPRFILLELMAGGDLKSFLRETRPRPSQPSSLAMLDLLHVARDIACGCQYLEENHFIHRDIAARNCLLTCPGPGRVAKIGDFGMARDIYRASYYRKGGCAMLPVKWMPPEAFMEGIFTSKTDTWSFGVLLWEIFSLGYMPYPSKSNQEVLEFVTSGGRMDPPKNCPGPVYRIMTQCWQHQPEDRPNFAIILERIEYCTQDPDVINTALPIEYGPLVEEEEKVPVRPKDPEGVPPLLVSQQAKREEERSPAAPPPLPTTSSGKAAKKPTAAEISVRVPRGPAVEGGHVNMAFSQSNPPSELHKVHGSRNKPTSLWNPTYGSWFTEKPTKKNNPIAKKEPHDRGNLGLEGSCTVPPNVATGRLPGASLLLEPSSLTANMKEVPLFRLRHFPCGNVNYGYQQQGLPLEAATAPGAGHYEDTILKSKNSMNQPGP

For orientation: IC50 means the concentration at which inhibition is half-maximal. For `Cc1cc(Nc2ncc(Cl)c(Nc3cn(C)nc3S(=O)(=O)C(C)C)n2)c(OC(C)C)cc1C1CNC1` [Final product 4], the 50% inhibitory concentration (IC50) in the experiment with Karpas-299 cell line was determined as 60 nM; at Wild Type ALK kinase it was 4 nM.

`Cc1cc(Nc2ncc(Cl)c(Nc3cn(C4CC4)nc3S(=O)(=O)C(C)C)n2)c(OC(C)C)cc1C1CCNCC1` [Final product 5]: the IC50 stood at 37 nM with Karpas-299 cell line and 6 nM at Wild Type ALK kinase.

`Cc1cc(Nc2ncc(Cl)c(Nc3cn(C)nc3S(=O)(=O)CC(C)C)n2)c(OC(C)C)cc1C1CCNCC1` [Final product 6]: the figures for the IC50 in the experiment on Karpas-299 cell line and at Wild Type ALK kinase were 24 nM and 3 nM, respectively. For the molecule `CCC(C)S(=O)(=O)c1nn(C)cc1Nc1nc(Nc2cc(C)c(C3CCNCC3)cc2OC(C)C)ncc1Cl` (centres unmarked) [Final product 7], the IC50 in the experiment with Karpas-299 cell line came to 21 nM; on Wild Type ALK kinase, 8 nM.

As for `Cc1cc(Nc2ncc(Cl)c(Nc3cn(C)nc3S(=O)(=O)C(C)C)n2)c(OC(CF)CF)cc1C1CCNCC1` [Final product 8], the IC50 stood at 67 nM in the experiment on Karpas-299 cell line and 9 nM at Wild Type ALK kinase. The like results for `CC(C)S(=O)(=O)c1nn(C)cc1Nc1nc(Nc2ccc(C3CCNCC3)cc2OC(F)(F)F)ncc1Cl` [Final product 9] were, in that order, 119 nM and 16 nM. In the same order, the values of `Cc1cc(Nc2ncc(Cl)c(Nc3cn(C)nc3S(=O)(=O)C(C)C)n2)c(OC(F)(F)F)cc1C1CCNCC1` [Final product 10] are 20 nM and 7 nM.

For `Cc1cc(Nc2ncc(Cl)c(Nc3cn(C)nc3S(=O)(=O)C(C)C)n2)c(C(F)(F)F)cc1C1CCNCC1` [Final product 11], the IC50 in the experiment with Karpas-299 cell line was 61 nM; on Wild Type ALK kinase, 22 nM. On to `Cc1cc(Nc2ncc(Cl)c(Nc3cn(C)nc3S(=O)(=O)C(C)C)n2)c(OCC2CC2)cc1C1CCNCC1` [Final product 12], for which the IC50 was 43 nM with Karpas-299 cell line and 10 nM on Wild Type ALK kinase. The like results for `CC(C)S(=O)(=O)c1nn(C)cc1Nc1nc(Nc2ccc(C3CCNCC3)cc2OC2CC2)ncc1Cl` [Final product 13] were, in that order, 7 nM and 3 nM. In the same order, the values of `CC(C)S(=O)(=O)c1nn(C)cc1Nc1nc(Nc2ccc(C3=CCNCC3)cc2OC2CC2)ncc1Cl` [Final product 14] are 19 nM and 4 nM.

Take `CC(C)S(=O)(=O)c1nn(C)cc1Nc1nc(Nc2ccc(C3CCNC3)cc2OC2CC2)ncc1Cl` (centres unmarked) [Final product 15]: the IC50 was 9 nM with Karpas-299 cell line and 3 nM at Wild Type ALK kinase. In the same order, the values of `CC(C)S(=O)(=O)c1nn(C2CC2)cc1Nc1nc(Nc2ccc(C3CCNCC3)cc2OC2CC2)ncc1Cl` [Final product 16] are 8 nM and 4 nM. For the molecule `CC(C)CS(=O)(=O)c1nn(C)cc1Nc1nc(Nc2ccc(C3CCNCC3)cc2OC2CC2)ncc1Cl` [Final product 17], the IC50 with Karpas-299 cell line was 36 nM; at Wild Type ALK kinase, 11 nM. The like results for `CC(C)CS(=O)(=O)c1nn(C)cc1Nc1nc(Nc2ccc(C3CCNC3)cc2OC2CC2)ncc1Cl` (centres unmarked) [Final product 18] were, in that order, 28 nM and 2 nM. Turning to `CC(C)S(=O)(=O)c1nn(C)cc1Nc1nc(Nc2cc(F)c(C3CCNC3)cc2OC2CC2)ncc1Cl` (centres unmarked) [Final product 20], the results for the IC50 in the experiment with Karpas-299 cell line and at Wild Type ALK kinase were 56 nM and 9 nM, respectively. As for `CC(C)S(=O)(=O)c1nn(C2CC2)cc1Nc1nc(Nc2cc(F)c(C3CCNCC3)cc2OC2CC2)ncc1Cl` [Final product 21], the IC50 in the experiment with Karpas-299 cell line is 10 nM; at Wild Type ALK kinase, 1 nM. As to `CC(C)S(=O)(=O)c1nn(C)cc1Nc1nc(Nc2cc(Cl)c(C3CCNCC3)cc2OC2CC2)ncc1Cl` [Final product 22], the IC50 with Karpas-299 cell line stood at 14 nM; at Wild Type ALK kinase, 2 nM.

`CC(C)S(=O)(=O)c1nn(C2CC2)cc1Nc1nc(Nc2cc(Cl)c(C3CCNCC3)cc2OC2CC2)ncc1Cl` [Final product 23]: the IC50 in the experiment with Karpas-299 cell line was found to be 38 nM; on Wild Type ALK kinase, 4 nM. In the case of `Cc1cc(Nc2ncc(Cl)c(Nc3cn(C)nc3S(=O)(=O)C(C)C)n2)c(OC2CC2)cc1C1CCNCC1` [Final product 24], the IC50 came out at 9 nM with Karpas-299 cell line and 2 nM on Wild Type ALK kinase. As to `Cc1cc(Nc2ncc(Cl)c(Nc3cn(C)nc3S(=O)(=O)C(C)C)n2)c(OC2CC2)cc1C1=CCNCC1` [Final product 25], the IC50 in the experiment on Karpas-299 cell line amounted to 12 nM; on Wild Type ALK kinase, 2 nM. The like results for `Cc1cc(Nc2ncc(Cl)c(Nc3cn(C)nc3S(=O)(=O)C(C)C)n2)c(OC2CC2)cc1C1CCNC1` (centres unmarked) [Final product 26] were, in that order, 16 nM and 5 nM. In the same order, the values of `Cc1cc(Nc2ncc(Cl)c(Nc3cn(C4CC4)nc3S(=O)(=O)C(C)C)n2)c(OC2CC2)cc1C1CCNCC1` [Final product 27] are 19 nM and 3 nM. As to `Cc1cc(Nc2ncc(Cl)c(Nc3cn(C)nc3S(=O)(=O)CC(C)C)n2)c(OC2CC2)cc1C1CCNCC1` [Final product 28], the IC50 in the experiment on Karpas-299 cell line amounted to 19 nM; on Wild Type ALK kinase, 9 nM. The like results for `CC(C)S(=O)(=O)c1nn(C)cc1Nc1nc(Nc2cc(C#N)c(C3CCNCC3)cc2OC2CC2)ncc1Cl` [Final product 29] were, in that order, 35 nM and 4 nM.

As to `CC(C)S(=O)(=O)c1nn(C)cc1Nc1nc(Nc2ccc(C3CCN(C)CC3)cc2OC(F)(F)F)ncc1Cl` [Final product 30], the half-maximal inhibitory concentration (IC50) in the experiment with Karpas-299 cell line was 25 nM; on Wild Type ALK kinase it was 7 nM.

For the molecule `Cc1cc(Nc2ncc(Cl)c(Nc3cn(C)nc3S(=O)(=O)C(C)C)n2)c(OC(F)(F)F)cc1C1CCN(C)CC1` [Final product 31], the IC50 came out at 20 nM in the experiment with Karpas-299 cell line and 6 nM at Wild Type ALK kinase.

Regarding `Cc1cc(Nc2ncc(Cl)c(Nc3cn(C)nc3S(=O)(=O)C(C)C)n2)c(C(F)(F)F)cc1C1CCN(C)CC1` [Final product 32], the IC50 was found to be 74 nM in the experiment with Karpas-299 cell line and 22 nM on Wild Type ALK kinase. `Cc1cc(Nc2ncc(Cl)c(Nc3cn(C)nc3S(=O)(=O)C(C)C)n2)c(OC(CF)CF)cc1C1CCN(C)CC1` [Final product 34]: the IC50 in the experiment with Karpas-299 cell line came out at 62 nM; at Wild Type ALK kinase it was 10 nM. On to `Cc1cc(Nc2ncc(Cl)c(Nc3cn(C)nc3S(=O)(=O)CC(C)C)n2)c(OC(C)C)cc1C1CN(C)C1` [Final product 36], for which the values for the IC50 with Karpas-299 cell line and on Wild Type ALK kinase were 62 nM and 8 nM, respectively. As to `Cc1cc(Nc2ncc(Cl)c(Nc3cn(C)nc3S(=O)(=O)C(C)C)n2)c(OC(C)C)cc1C1CCN(C)C1` (centres unmarked) [Final product 37], the IC50 with Karpas-299 cell line was found to be 11 nM; on Wild Type ALK kinase it was 7 nM.

Consider `CC(C)S(=O)(=O)c1nn(C2CC2)cc1Nc1nc(Nc2ccc(C3CCN(C)CC3)cc2OC(F)(F)F)ncc1Cl` [Final product 38], for which the values for the IC50 in the experiment on Karpas-299 cell line and at Wild Type ALK kinase were 22 nM and 11 nM, respectively. With `CC(C)S(=O)(=O)c1nn(C2CC2)cc1Nc1nc(Nc2cc(F)c(C3CCN(C)CC3)cc2OC2CC2)ncc1Cl` [Final product 46], the IC50 on Wild Type ALK kinase is 2 nM.

The record behind these values is US10023593B2, “ALK kinase inhibitor, and preparation method and uses thereof” (BEIJING PEARL BIOTECHNOLOGY LIMITED LIABILITY COMPANY, priority 2014, dated 2018).
